Results: patent US5190741A, “Agents for diagnosing and treating melanomas, aromatic halogenated derivatives usable as such agents and their preparation” (Institut National de la Sante et de la Recherche Medicale …, priority 1989, dated 1993)
Like-named read-outs stand apart in the source and are kept apart here.

Assays:
[1] = tested on: male nu/nu SSCUP nude mice bearing heterotransplants (Beu melanoma); experiment: LD50 determination, i.v. (Karber and Behrens); conditions: mouse, in vivo, iv
Text: (§1) The determination of the LD50 is made in the mouse after i.v. injection of the molecules according to the methodology described by Karber and Behrens.
(§2) male nu/nu SSCUP nude mice bearing heterotransplants of human melanomas.

[2] = LD50 determination, i.v. (Karber and Behrens); conditions: mouse, in vivo, iv
Text: as §1, §2

[3] = tested on: A 431 (tumor of the vulva); experiment: Scintillation imaging (specificity), nu/nu SSCUP nude mice; type: in vivo; conditions: after injection of A
Text: (§3) The mice bearing grafted tumors are anesthetized by the i.p. injection of sodium pentobarbital 1/5 and immobilized under a scintillation camera (Gammatome II, CGR) equipped with a pinhole 3-360 collimator, sensitivity 3.2 10^-4.

[4] = tested on: EMT6 tumor (spontaneous mammary carcinoma of mice); experiment: Scintillation imaging (specificity), BALB mice; type: in vivo, mouse
Text: as §3

[5] = tested on: human and murine melanomas; experiment: Scintillation imaging in human and murine melanoma models (B16, B16 pulmonary metastases, Beu, Dau, FOSS(ORIS)); type: in vivo, human; mouse
Text: The mice bearing grafted tumors are anesthetized by the i.p. injection of sodium pentobarbital 1/5 and immobilized under a scintillation camera (Gammatome II, CGR) equipped with a pinhole 3-360 collimator, sensitivity 3.2 10^-4. […] C57 BL6 bearing pulmonary metastases of B16 melanoma.

[6] = Tissue distribution in Swiss nu/nu SSCUP mice bearing Beu; type: in vivo, human; conditions: mouse, iv, 3 umol/animal
Description: The study of the tissue distribution of the ^125 I labelled compounds was performed in mice bearing grafted melanomas (cf. autoradiograms above). […] The animals are sacrificed at different time intervals of 1 to 24 hours after the injection. The blood is collected and the principal organs are excised. Aliquots are weighed and the radioactivity of the samples is measured in a […] 1191 counter (analytic tracer). The counting yield for iodine 125 is 60%. The results are expressed: as a percentage of the injected dose bound per g of tissue (% ID/g); in the form of the ratios [formula] This ratio reflects more precisely the selectivity of a molecule for an organ (tables 2, 4, 6, 8, 10 and 12).

[7] = intestine, read-out: intestine % ID/g
[8] = kidney, read-out: kidney % ID/g
[9] = muscle, read-out: muscle % ID/g
[10] = pancreas, read-out: pancreas % ID/g
[11] = plasma, read-out: plasma % ID/g
[12] = spleen, read-out: spleen % ID/g
[13] = stomach, read-out: stomach % ID/g
[14] = submaxillary glands, read-out: submaxillary glands % ID/g

For `CCN(CC)CCNC(=O)c1ccc(I)cc1` [Derivative A, N-(2-diethylaminoethyl) 4-iodo benzamide], the “LD 0” value [1] was 60 mg/kg, the “LD 100” value [1] was 150 mg/kg and the LD50 [2] was 90 mg/kg. For the same compound, the tumor image [3] was “not obtained any image”, the tumor image ([4]; ^123 I label) was “absence of images” and the tumor image ([4]; after injection of A) was “not obtained any image”. The “tumoral definition in scintillation images” value ([5]; ^125 I and ^123 I-A, i.v.) was “good tumoral definition”, the early images ([5]; considerable intraabdominal and pulmonary radioactivity) was “more difficult to interpret” and the “quality of tumor images” value ([5]; from 4 h) was “good quality”. The intratumoral necrosis zones ([5]; in vivo) was “not visualized”, the “size of human melanoma imaged” value ([5]; in vivo) was “less than 5 mm” and the tissue uptake at 1 h ([6]; blood, read-out: blood % ID/g) was 0.87 %ID/g. For the same compound, the tissue uptake at 2 h ([6]; blood, read-out: blood % ID/g) was 0.53 %ID/g, the tissue uptake at 4 h ([6]; blood, read-out: blood % ID/g) was 0.32 %ID/g and the tissue uptake at 6 h ([6]; blood, read-out: blood % ID/g) was 0.13 %ID/g. For the same compound, the tissue uptake at 24 h ([6]; blood, read-out: blood % ID/g) was 0.01 %ID/g, the tissue uptake at 8 h ([6]; blood, 8 h, read-out: blood % ID/g) was 0.05 %ID/g and the tissue uptake at 12 h ([6]; blood, read-out: blood % ID/g) was 0.02 %ID/g. It also gave a tissue uptake at 1 h ([6]; brain, read-out: brain % ID/g) of 1.66 %ID/g, a tissue uptake at 2 h ([6]; brain, read-out: brain % ID/g) of 1.13 %ID/g and a tissue uptake at 4 h ([6]; brain, read-out: brain % ID/g) of 0.78 %ID/g. For the same compound, the tissue uptake at 6 h ([6]; brain, read-out: brain % ID/g) was 0.28 %ID/g, the tissue uptake at 24 h ([6]; brain, read-out: brain % ID/g) was 0.006 %ID/g and the tissue uptake at 8 h ([6]; brain, 8 h, read-out: brain % ID/g) was 0.13 %ID/g. It also gave a tissue uptake at 12 h ([6]; brain, read-out: brain % ID/g) of 0.01 %ID/g, a tissue uptake at 1 h ([6]; eye, read-out: eye % ID/g) of 0.64 %ID/g and a tissue uptake at 2 h ([6]; eye, read-out: eye % ID/g) of 0.56 %ID/g. The tissue uptake at 4 h ([6]; eye, read-out: eye % ID/g) was 0.34 %ID/g, the tissue uptake at 6 h ([6]; eye, read-out: eye % ID/g) was 0.13 %ID/g and the tissue uptake at 24 h ([6]; eye, read-out: eye % ID/g) was 0.03 %ID/g. For the same compound, the tissue uptake at 8 h ([6]; eye, 8 h, read-out: eye % ID/g) was 0.07 %ID/g, the tissue uptake at 12 h ([6]; eye, read-out: eye % ID/g) was 0.03 %ID/g and the tissue uptake at 1 h [6, 7] was 3.76 %ID/g. It also gave a tissue uptake at 2 h [6, 7] of 2.35 %ID/g, a tissue uptake at 4 h [6, 7] of 1.56 %ID/g and a tissue uptake at 6 h [6, 7] of 0.52 %ID/g. For the same compound, the tissue uptake at 8 h ([6]; intestine, 8 h, read-out: intestine % ID/g) was 0.15 %ID/g, the tissue uptake at 12 h [6, 7] was 0.08 %ID/g and the tissue uptake at 24 h [6, 7] was 0.03 %ID/g. For the same compound, the tissue uptake at 1 h [6, 8] was 7.63 %ID/g, the tissue uptake at 2 h [6, 8] was 5.9 %ID/g and the tissue uptake at 4 h [6, 8] was 4.28 %ID/g. For the same compound, the tissue uptake at 6 h [6, 8] was 0.99 %ID/g, the tissue uptake at 24 h [6, 8] was 0.06 %ID/g and the tissue uptake at 8 h ([6]; kidney, 8 h, read-out: kidney % ID/g) was 0.28 %ID/g. The tissue uptake at 12 h [6, 8] was 0.1 %ID/g, the tissue uptake at 1 h ([6]; liver, read-out: liver % ID/g) was 5.27 %ID/g and the tissue uptake at 2 h ([6]; liver, read-out: liver % ID/g) was 3.5 %ID/g. For the same compound, the tissue uptake at 4 h ([6]; liver, read-out: liver % ID/g) was 2.28 %ID/g, the tissue uptake at 6 h ([6]; liver, read-out: liver % ID/g) was 0.94 %ID/g and the tissue uptake at 24 h ([6]; liver, read-out: liver % ID/g) was 0.13 %ID/g. The tissue uptake at 8 h ([6]; liver, 8 h, read-out: liver % ID/g) was 0.52 %ID/g, the tissue uptake at 12 h ([6]; liver, read-out: liver % ID/g) was 0.28 %ID/g and the tissue uptake at 1 h ([6]; lungs, read-out: lungs % ID/g) was 7.77 %ID/g. It also gave a tissue uptake at 2 h ([6]; lungs, read-out: lungs % ID/g) of 4.71 %ID/g, a tissue uptake at 4 h ([6]; lungs, read-out: lungs % ID/g) of 3.6 %ID/g and a tissue uptake at 6 h ([6]; lungs, read-out: lungs % ID/g) of 1.25 %ID/g. It also gave a tissue uptake at 8 h ([6]; lungs, 8 h, read-out: lungs % ID/g) of 0.35 %ID/g, a tissue uptake at 12 h ([6]; lungs, read-out: lungs % ID/g) of 0.08 %ID/g and a tissue uptake at 24 h ([6]; lungs, read-out: lungs % ID/g) of 0.05 %ID/g. The tissue uptake at 1 h [6, 9] was 1.3 %ID/g, the tissue uptake at 2 h [6, 9] was 0.93 %ID/g and the tissue uptake at 4 h [6, 9] was 0.51 %ID/g. It also gave a tissue uptake at 6 h [6, 9] of 0.33 %ID/g, a tissue uptake at 24 h [6, 9] of 0.01 %ID/g and a tissue uptake at 8 h ([6]; muscle, 8 h, read-out: muscle % ID/g) of 0.08 %ID/g. It also gave a tissue uptake at 12 h [6, 9] of 0.01 %ID/g, a tissue uptake at 1 h [6, 10] of 3.99 %ID/g and a tissue uptake at 2 h [6, 10] of 2.28 %ID/g. For the same compound, the tissue uptake at 4 h [6, 10] was 1.39 %ID/g, the tissue uptake at 6 h [6, 10] was 0.36 %ID/g and the tissue uptake at 8 h ([6]; pancreas, 8 h, read-out: pancreas % ID/g) was 0.12 %ID/g. The tissue uptake at 12 h [6, 10] was 0.06 %ID/g, the tissue uptake at 24 h [6, 10] was 0.05 %ID/g and the tissue uptake at 1 h [6, 11] was 0.46 %ID/g. The tissue uptake at 2 h [6, 11] was 0.35 %ID/g, the tissue uptake at 4 h [6, 11] was 0.2 %ID/g and the tissue uptake at 6 h [6, 11] was 0.12 %ID/g. It also gave a tissue uptake at 24 h [6, 11] of 0.01 %ID/g, a tissue uptake at 8 h ([6]; plasma, 8 h, read-out: plasma % ID/g) of 0.04 %ID/g and a tissue uptake at 12 h [6, 11] of 0.02 %ID/g. The tissue uptake at 1 h [6, 12] was 4.11 %ID/g, the tissue uptake at 2 h [6, 12] was 2.12 %ID/g and the tissue uptake at 4 h [6, 12] was 1.07 %ID/g. It also gave a tissue uptake at 6 h [6, 12] of 0.28 %ID/g, a tissue uptake at 8 h ([6]; spleen, 8 h, read-out: spleen % ID/g) of 0.11 %ID/g and a tissue uptake at 12 h [6, 12] of 0.04 %ID/g. It also gave a tissue uptake at 24 h [6, 12] of 0.02 %ID/g, a tissue uptake at 1 h [6, 13] of 2.49 %ID/g and a tissue uptake at 2 h [6, 13] of 1.51 %ID/g. The tissue uptake at 4 h [6, 13] was 1.16 %ID/g, the tissue uptake at 6 h [6, 13] was 0.49 %ID/g and the tissue uptake at 8 h ([6]; stomach, 8 h, read-out: stomach % ID/g) was 0.22 %ID/g. The tissue uptake at 12 h [6, 13] was 0.07 %ID/g, the tissue uptake at 24 h [6, 13] was 0.04 %ID/g and the tissue uptake at 1 h [6, 14] was 5.11 %ID/g. For the same compound, the tissue uptake at 2 h [6, 14] was 2.9 %ID/g, the tissue uptake at 4 h [6, 14] was 1.71 %ID/g and the tissue uptake at 6 h [6, 14] was 0.95 %ID/g. It also gave a tissue uptake at 8 h ([6]; submaxillary glands, 8 h, read-out: submaxillary glands % ID/g) of 0.24 %ID/g, a tissue uptake at 12 h [6, 14] of 0.04 %ID/g and a tissue uptake at 24 h [6, 14] of 0.03 %ID/g. The tissue uptake at 1 h ([6]; tumor, read-out: tumor % ID/g) was 3.51 %ID/g, the tissue uptake at 2 h ([6]; tumor, read-out: tumor % ID/g) was 3.17 %ID/g and the tissue uptake at 4 h ([6]; tumor, read-out: tumor % ID/g) was 3.25 %ID/g. For the same compound, the tissue uptake at 6 h ([6]; tumor, read-out: tumor % ID/g) was 1.96 %ID/g, the tissue uptake at 24 h ([6]; tumor, read-out: tumor % ID/g) was 0.07 %ID/g and the tissue uptake at 8 h ([6]; tumor, up to 8 hours, Beu, read-out: intratumoral concentration) was greater than 1 %ID/g. The tissue uptake at 8 h ([6]; tumor, 8 h, read-out: tumor % ID/g) was 1.07 %ID/g and the tissue uptake at 12 h ([6]; tumor, read-out: tumor % ID/g) was 0.36 %ID/g.
